Legend:
[1] = Activation of rat SK2 variant a transfected in human tsA201 cells coexpressing CaM/GFP in presence of Ca2+ by […]; format: cell-based
[2] = target: T1, Small conductance calcium-activated potassium channel protein 1 (Homo sapiens, UniProt Q92952); test: Positive modulation of SK1 in HEK293 cells in presence of Ca2+ by patch-clamp method; format: cell-based
[3] = target: T2, Small conductance calcium-activated potassium channel protein 2 (Homo sapiens, UniProt Q9H2S1); test: Positive modulation of SK2 in HEK293 cells in presence of Ca2+ by patch-clamp method; format: cell-based
[4] = Apparent permeability across apical to basal side in human BMEC cells at 10 ug/ml incubated for 24 hrs by BBB assay; format: ADME, cell-based; conditions: dose 10 µg/ml
HUVEC = test: Cytotoxicity against HUVEC cells assessed as cell viability at 0.1 to 10000 nM incubated for 24 hrs by CCK8 assay; format: toxicity, cell-based; conditions: human, 10 µM, dose 0.1-10000 nM
[5] = AUC (0 to t) in fasted Sprague-Dawley rat at 100 mg/kg, po measured upto 12 hrs by LC-MS/MS analysis; format: ADME, organism-based; set-up: time < 12 hrs, dose 100 mg/kg, route po; conditions: in vivo
[6] = AUC (0 to infinity) in fasted Sprague-Dawley rat at 100 mg/kg, po measured upto 12 hrs by LC-MS/MS analysis; format: ADME, organism-based; set-up: time < 12 hrs, dose 100 mg/kg, route po; conditions: in vivo
[7] = MRT in fasted Sprague-Dawley rat at 100 mg/kg, po measured upto 12 hrs by LC-MS/MS analysis; format: ADME, organism-based; conditions: in vivo
[8] = Half life in fasted Sprague-Dawley rat at 100 mg/kg, po measured upto 12 hrs by LC-MS/MS analysis; format: ADME, organism-based; conditions: in vivo
[9] = Tmax in fasted Sprague-Dawley rat at 100 mg/kg, po measured upto 12 hrs by LC-MS/MS analysis; format: ADME, organism-based; conditions: in vivo
[10] = Cmax in fasted Sprague-Dawley rat at 100 mg/kg, po measured upto 12 hrs by LC-MS/MS analysis; format: ADME, organism-based; set-up: time < 12 hrs, dose 100 mg/kg, route po; conditions: in vivo
[11] = Apparent volume of distribution during terminal phase in fasted Sprague-Dawley rat at 100 mg/kg, po measured upto 12 hrs by LC-MS/MS analysis; format: ADME, organism-based; conditions: in vivo, read-out: Vz/F
[12] = Apparent oral clearance in fasted Sprague-Dawley rat at 100 mg/kg, po measured upto 12 hrs by LC-MS/MS analysis; format: ADME, organism-based; conditions: in vivo
[13] = Oral bioavailability in fasted Sprague-Dawley rat at 100 mg/kg measured upto 12 hrs by LC-MS/MS analysis; format: ADME, organism-based; conditions: in vivo
[14] = AUC (0 to t) in fasted Sprague-Dawley rat at 2 mg/kg, iv measured upto 12 hrs by LC-MS/MS analysis; format: ADME, organism-based; set-up: dose 2 mg/kg, time < 12 hrs, route iv; conditions: in vivo
[15] = AUC (0 to infinity) in fasted Sprague-Dawley rat at 2 mg/kg, iv measured upto 12 hrs by LC-MS/MS analysis; format: ADME, organism-based; set-up: time < 12 hrs, dose 2 mg/kg, route iv; conditions: in vivo
[16] = MRT in fasted Sprague-Dawley rat at 2 mg/kg, iv measured upto 12 hrs by LC-MS/MS analysis; format: ADME, organism-based; conditions: in vivo
[17] = Half life in fasted Sprague-Dawley rat at 2 mg/kg, iv measured upto 12 hrs by LC-MS/MS analysis; format: ADME, organism-based; conditions: in vivo
[18] = Cmax in fasted Sprague-Dawley rat at 2 mg/kg, iv measured upto 12 hrs by LC-MS/MS analysis; format: ADME, organism-based; set-up: dose 2 mg/kg, time < 12 hrs, route iv; conditions: in vivo
[19] = Apparent volume of distribution during terminal phase in fasted Sprague-Dawley rat at 2 mg/kg, iv measured upto 12 hrs by LC-MS/MS analysis; format: ADME, organism-based; conditions: in vivo
[20] = Apparent oral clearance in fasted Sprague-Dawley rat at 2 mg/kg, iv measured upto 12 hrs by LC-MS/MS analysis; format: ADME, organism-based; conditions: in vivo
[21] = target: T1, Small conductance calcium-activated potassium channel protein 1; test: Positive modulation of SK1 (unknown origin)
[22] = target: T2, Small conductance calcium-activated potassium channel protein 2; test: Positive modulation of SK2 (unknown origin)
[23] = target: Small conductance calcium-activated potassium channel protein 3 (Homo sapiens, UniProt Q9UGI6); test: Positive modulation of SK3 (unknown origin)
Small conductance calcium-activated potassium channel protein 3, sequence (Q9UGI6 whole entry): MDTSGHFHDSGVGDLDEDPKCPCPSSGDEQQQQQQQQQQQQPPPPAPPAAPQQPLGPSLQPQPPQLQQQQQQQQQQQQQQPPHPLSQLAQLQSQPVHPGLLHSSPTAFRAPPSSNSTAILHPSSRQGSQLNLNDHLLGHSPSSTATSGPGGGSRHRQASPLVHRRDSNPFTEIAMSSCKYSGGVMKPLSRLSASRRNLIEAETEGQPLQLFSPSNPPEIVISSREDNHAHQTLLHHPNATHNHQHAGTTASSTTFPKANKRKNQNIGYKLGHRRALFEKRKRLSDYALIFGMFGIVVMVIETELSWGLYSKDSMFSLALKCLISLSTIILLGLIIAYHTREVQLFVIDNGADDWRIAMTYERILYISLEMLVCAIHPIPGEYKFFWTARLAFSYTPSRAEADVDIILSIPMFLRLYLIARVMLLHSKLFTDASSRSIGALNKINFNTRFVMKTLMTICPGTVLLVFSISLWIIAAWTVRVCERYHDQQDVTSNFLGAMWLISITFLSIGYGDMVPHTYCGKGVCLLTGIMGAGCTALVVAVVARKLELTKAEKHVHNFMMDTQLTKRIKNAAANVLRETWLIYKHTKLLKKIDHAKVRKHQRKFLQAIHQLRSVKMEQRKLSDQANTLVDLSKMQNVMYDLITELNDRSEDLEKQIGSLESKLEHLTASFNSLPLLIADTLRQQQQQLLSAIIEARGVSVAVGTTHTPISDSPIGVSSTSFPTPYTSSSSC

T2 sequence (Q9H2S1 whole entry): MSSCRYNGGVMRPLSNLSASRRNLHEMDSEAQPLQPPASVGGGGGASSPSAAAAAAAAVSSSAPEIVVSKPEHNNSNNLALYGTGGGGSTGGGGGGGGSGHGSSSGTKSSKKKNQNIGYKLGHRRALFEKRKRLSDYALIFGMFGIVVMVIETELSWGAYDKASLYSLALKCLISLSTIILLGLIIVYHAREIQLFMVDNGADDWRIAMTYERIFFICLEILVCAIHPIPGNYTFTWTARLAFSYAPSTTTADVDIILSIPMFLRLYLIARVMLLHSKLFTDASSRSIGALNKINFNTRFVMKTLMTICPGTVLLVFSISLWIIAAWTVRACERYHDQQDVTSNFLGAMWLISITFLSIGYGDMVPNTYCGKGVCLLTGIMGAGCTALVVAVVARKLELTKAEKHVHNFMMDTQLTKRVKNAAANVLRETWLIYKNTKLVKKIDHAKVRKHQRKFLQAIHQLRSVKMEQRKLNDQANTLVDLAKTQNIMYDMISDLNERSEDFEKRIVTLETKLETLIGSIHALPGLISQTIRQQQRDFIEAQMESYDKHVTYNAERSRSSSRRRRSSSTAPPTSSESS
T1 sequence (Q92952 whole entry): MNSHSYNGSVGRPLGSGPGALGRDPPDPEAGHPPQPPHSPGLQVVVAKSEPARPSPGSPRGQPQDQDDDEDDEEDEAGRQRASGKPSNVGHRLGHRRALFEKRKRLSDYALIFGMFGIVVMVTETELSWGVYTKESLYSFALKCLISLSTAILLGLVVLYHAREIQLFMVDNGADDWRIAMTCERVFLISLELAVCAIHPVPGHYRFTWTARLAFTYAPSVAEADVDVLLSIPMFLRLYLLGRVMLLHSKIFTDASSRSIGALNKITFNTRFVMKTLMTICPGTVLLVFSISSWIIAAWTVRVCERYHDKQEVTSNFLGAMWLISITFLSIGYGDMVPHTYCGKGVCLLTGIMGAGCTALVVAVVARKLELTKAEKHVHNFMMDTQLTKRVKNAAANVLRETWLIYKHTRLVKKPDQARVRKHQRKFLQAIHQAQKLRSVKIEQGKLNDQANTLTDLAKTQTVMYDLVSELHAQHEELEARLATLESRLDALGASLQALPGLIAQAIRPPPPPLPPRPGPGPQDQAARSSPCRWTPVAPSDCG

## Cc1cccc(Nc2nc(-n3nc(C)cc3C)nc3ccn(C)c23)c1
[1]
  EC50: 7.71 µM

## Cc1cc(C)n(-c2nc(Nc3ccc(Cl)cc3)c3ncn(C)c3n2)n1
[2]
  EC50: > 100 µM
[3]
  EC50: 1.8 µM
[4]
  Papp A→B at 24 h, 10 ug/ml: 29.4 nm/s

## Cc1cc(C)n(-c2nc(Nc3ccccc3)c3ccn(C)c3n2)n1
[1]
  EC50: 4.31 µM

## Cc1cc(C)n(-c2nc(Nc3ccc(F)cc3)c3ccsc3n2)n1
[1]
  EC50: 6.78 µM

## Cc1cc(C)n(-c2nc(Nc3ccc(I)cc3)c3ccsc3n2)n1
[1]
  EC50: > 100 µM

## CCc1ccc(Nc2nc(-n3nc(C)cc3C)nc3sccc23)cc1
[1]
  EC50: > 100 µM

## Cc1cc(C)n(-c2nc(Nc3cccc(Br)c3)c3ccn(C)c3n2)n1
[1]
  EC50: 0.73 µM
HUVEC
  Activity: Non-Toxic
[4]
  Papp A→B at 24 h, 10 ug/ml: 32.3 nm/s
[5]; Sprague-Dawley
  AUC(0-t) at 12 h: 2.5 µg·h/mL
[6]
  AUC(0-inf): 2.51 µg·h/mL
[7]
  MRT: 3.22 h
[8]
  half-life: 1.25 h
[9]
  Tmax: 2.67 h
[10]
  Cmax: 0.662 µg/mL
[11]
  Vd/F: 92.9 L/kg
[12]; Sprague-Dawley, read-out: CLz/F (converted)
  CL/F: 48.8 L/h/kg
[13]; Sprague-Dawley
  bioavailability: 4.03%
[14]
  AUC(0-t) at 12 h: 1.36 µg·h/mL
[15]; Sprague-Dawley
  AUC(0-inf): 1.37 µg·h/mL
[16]
  MRT: 1.5 h
[17]
  half-life: 1.97 h
[18]
  Cmax: 1.62 µg/mL
[19]
  Vz/F: 4.791 L/kg
[20]
  CLz/F: 1.608 L/h/kg

## Cc1cc(C)n(-c2nc(N(C)Cc3ccccc3)c3ccn(C)c3n2)n1
[1]
  EC50: 19.1 µM

## Cc1cc(C)n(-c2nc(Nc3ccccc3)c3ccsc3n2)n1
[1]
  EC50: 8.34 µM

## Cc1ccc(Nc2nc(-n3nc(C)cc3C)nc3c2ccn3C)cc1
[1]
  EC50: 3.1 µM

## Cc1cc(C)n(-c2nc(Nc3ccc(F)cc3)c3ccn(C)c3n2)n1
[1]
  EC50: 3.41 µM

## Cc1cc(C)n(-c2nc(Nc3ccc(Cl)cc3)c3ccn(C)c3n2)n1
[1]
  EC50: 3.5 µM

## Cc1cc(C)n(-c2nc(Nc3ccc(Cl)c(C(F)(F)F)c3)c3ccn(C)c3n2)n1
[1]
  EC50: 1.2 µM

## COc1ccc(Nc2nc(-n3nc(C)cc3C)nc3sccc23)cc1
[1]
  EC50: > 100 µM

## Cc1cc(C)n(-c2nc(Nc3cccc(C(C)C)c3)c3c(ccn3C)n2)n1
[1]
  EC50: 2.97 µM

## Cc1ccn(-c2nc(Nc3cccc(Br)c3)c3ccn(C)c3n2)n1
[1]
  EC50: 0.48 µM

## Cc1ccn(-c2nc(Nc3ccc(Cl)c(C(F)(F)F)c3)c3ccn(C)c3n2)n1
[1]
  EC50: 0.5 µM

## Cc1ccn(-c2nc(Nc3cccc(C(F)(F)F)c3)c3ccn(C)c3n2)n1
[1]
  EC50: 6.52 µM

## Cc1cc(C)n(-c2nc(Nc3ccc(C(C)C)cc3)c3ccsc3n2)n1
[1]
  EC50: > 100 µM

## O=C1Nc2c(ccc(Cl)c2Cl)C1=NO
[2]
  EC50: 0.6 µM
[3]
  EC50: 0.8 µM

## Cc1cc(C)n(-c2nc(Nc3cccc(C(F)(F)F)c3)c3ccn(C)c3n2)n1
[1]
  EC50: 1.6 µM

## Cc1cc(C)n(-c2nc(Nc3cccc(C(F)(F)F)c3)c3c(ccn3C)n2)n1
[1]
  EC50: 20.4 µM

## Cc1cc(NC2CCCCC2)nc(-n2nc(C)cc2C)n1
[21]
  EC50: > 100 µM
[22]
  EC50: 14 µM
[23]
  EC50: 5.6 µM

## Cc1cc(C)n(-c2nc(NC3CCCCC3)c3ccn(C)c3n2)n1
[1]
  EC50: 2.28 µM

## Cc1cc(C)n(-c2nc(Nc3cccc(Br)c3)c3c(ccn3C)n2)n1
[1]
  EC50: 1.73 µM

## Cc1cc(C)n(-c2nc(Nc3ccc(Br)cc3)c3ccsc3n2)n1
[1]
  EC50: > 100 µM

## COc1ccc(Nc2nc(-n3nc(C)cc3C)nc3c2ccn3C)cc1
[1]
  EC50: 13.7 µM

## Cc1cc(C)n(-c2nc(Nc3cccc([N+](=O)[O-])c3)c3ccn(C)c3n2)n1
[1]
  EC50: 5.73 µM

## CCC(CC)Nc1nc(-n2nc(C)cc2C)nc2sccc12
[1]
  EC50: > 100 µM

## Cc1cc(C)n(-c2nc(Nc3ccc(Br)cc3)c3ccn(C)c3n2)n1
[1]
  EC50: 1.94 µM

## Cc1cc(C)n(-c2nc(Nc3ccc(C(C)C)cc3)c3ccn(C)c3n2)n1
[1]
  EC50: 3.81 µM

## Cc1cc(C)n(-c2nc(Nc3ccc(Cl)c(C(F)(F)F)c3)c3c(ccn3C)n2)n1
[1]
  EC50: 29.8 µM

## Cc1cc(C)n(-c2nc(Nc3ccc(F)c(Cl)c3)c3ccn(C)c3n2)n1
[1]
  EC50: 1.79 µM

## CCc1ccc(Nc2nc(-n3nc(C)cc3C)nc3c2ccn3C)cc1
[1]
  EC50: > 100 µM

## Cc1ccn(-c2nc(Nc3ccc(F)cc3)c3ccn(C)c3n2)n1
HUVEC
  Activity: Non-Toxic
[4]
  Papp A→B at 24 h, 10 ug/ml: 30.7 nm/s
[5]; 12 h
  AUCt: 2.427989 µg·h/mL
[7]
  MRT: 3.37 h
[8]
  half-life: 1.43 h
[9]
  Tmax: 2.67 h
[10]
  Cmax: 0.488 µg/mL
[11]
  Vd/F: 86.7 L/kg
[12]; po, 100 mg/kg, 12 h
  CLz/F: 41.716 L/h/kg
[13]; po, 100 mg/kg, 12 h
  F: 23.6%
[14]
  AUC(0-t) at 12 h: 1.11 µg·h/mL
[15]; 12 h
  AUC: 1.16828 µg·h/mL
[16]
  MRT: 1.51 h
[17]
  half-life: 2.63 h
[18]
  Cmax: 1.68 µg/mL
[19]
  Vz/F: 6.111 L/kg
[20]
  CLz/F: 1.903 L/h/kg

## Cc1cc(C)n(-c2nc(NC3CCCCC3)c3ccsc3n2)n1
[1]
  EC50: > 100 µM

## Cc1ccc(Nc2nc(-n3nc(C)cc3C)nc3sccc23)cc1
[1]
  EC50: > 100 µM

## Cc1cc(C)n(-c2nc(Nc3ccccc3)c3c(ccn3C)n2)n1
[1]
  EC50: 8.43 µM

## Cc1cccc(Nc2nc(-n3nc(C)cc3C)nc3c2ccn3C)c1
[1]
  EC50: 6.54 µM

## Cc1cc(C)n(-c2nc(Nc3ccc(Cl)cc3)c3ccsc3n2)n1
[1]
  EC50: > 100 µM

## Cc1cc(C)n(-c2nc(Nc3cccc(C#N)c3)c3ccn(C)c3n2)n1
[1]
  EC50: 4.08 µM

## CCc1ccc(Nc2nc(-n3nc(C)cc3C)nc3ccn(C)c23)cc1
[1]
  EC50: 3.65 µM

From ChEMBL document CHEMBL5325425, “Design, synthesis and biological evaluation of pyrrolopyrimidine derivatives as novel and selective positive modulator of the small conductance Ca2+-activated K+ channels” (Eur J Med Chem, 2023)
